# Laboratory results: ChEMBL document CHEMBL1126449, “Synthesis and anti-acetylcholinesterase activity of 1-benzyl-4-[(5,6-dimethoxy-1-indanon-2-yl)methyl]piperidine hydrochloride (E2020) and related compounds” (Bioorg Med Chem Lett, 1992)
# Molecular target: T1, Acetylcholinesterase (Mus musculus, UniProt P21836)
# T1 sequence (P21836 whole entry): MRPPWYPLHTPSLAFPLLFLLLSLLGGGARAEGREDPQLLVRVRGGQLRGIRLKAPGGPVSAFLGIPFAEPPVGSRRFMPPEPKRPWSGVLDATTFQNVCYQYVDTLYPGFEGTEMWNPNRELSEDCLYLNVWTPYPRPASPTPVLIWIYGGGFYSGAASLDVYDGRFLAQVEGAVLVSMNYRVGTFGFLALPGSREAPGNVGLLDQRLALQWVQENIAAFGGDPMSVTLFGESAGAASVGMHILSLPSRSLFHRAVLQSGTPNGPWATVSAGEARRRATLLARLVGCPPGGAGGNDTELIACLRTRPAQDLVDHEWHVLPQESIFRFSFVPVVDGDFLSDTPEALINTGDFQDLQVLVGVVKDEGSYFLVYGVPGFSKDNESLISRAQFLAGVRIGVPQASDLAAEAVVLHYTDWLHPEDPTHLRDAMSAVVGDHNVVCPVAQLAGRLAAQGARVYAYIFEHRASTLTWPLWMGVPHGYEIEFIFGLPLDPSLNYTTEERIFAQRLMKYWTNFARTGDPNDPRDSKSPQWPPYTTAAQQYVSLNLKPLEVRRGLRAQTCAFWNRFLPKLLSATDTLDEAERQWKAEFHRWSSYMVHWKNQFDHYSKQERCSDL
# Assay: biochemical
# Description: Inhibition of Acetylcholinesterase activity in mouse brain homogenate
row,Structure (SMILES),IC50 [nM]
1,COc1cc2c(cc1OC)C(=O)C(CC1CCN(Cc3ccc([N+](=O)[O-])cc3)CC1)C2 (configuration not stated),100
2,COc1cc2c(cc1OC)C(=O)C(CC1CCN(CCc3ccccc3)CC1)C2 (configuration not stated),180
3,COc1cc2c(cc1OC)C(=O)C(CN1CCN(Cc3ccccc3)CC1)C2 (configuration not stated),94
4,COc1cc2c(cc1OC)C(=O)C(CC1CCN(Cc3ccccc3C)CC1)C2 (configuration not stated),10
5,COc1cc2c(cc1OC)C(=O)/C(=C/CC1CCN(Cc3ccccc3)CC1)C2,150
6,COc1cc2c(cc1OC)CC(CC1CCN(Cc3ccccc3)CC1)=C2,4400
7,COc1cc2c(cc1OC)C(O)C(CC1CCN(Cc3ccccc3)CC1)C2 (configuration not stated),300
8,COc1cc2c(cc1OC)C(=O)C(CC1CCN(Cc3cccc(C)c3)CC1)C2 (configuration not stated),2.7
9,COc1cc2c(cc1OC)C(=O)C(CC1CCN(CC3CCCCC3)CC1)C2 (configuration not stated),8.9
10,COc1cc2c(cc1OC)C(=O)C(CC1CCN(Cc3cccc([N+](=O)[O-])c3)CC1)C2 (configuration not stated),4
11,COc1cc2c(cc1OC)C(=O)C(CC1CCN(C(=O)c3ccccc3)CC1)C2 (configuration not stated),> 10000
12,COc1cc2c(cc1OC)C(=O)/C(=C/C1CCN(Cc3ccccc3)CC1)C2,13
